Test results as given in US12428406B2 (PMV Pharmaceuticals, Inc., priority 2019, dated 2025).

The molecules below were run against T1, p53 Y220C (Homo sapiens, UniProt P04637, Y220C) (assay: In vitro DNA binding activity assay (HTRF / TR-FRET): stabilization of p53 Y220C and increase of its DNA binding activity). Conditions: recombinant His-tagged p53 Y220C DNA binding domain (aa 94-312), biotin-labeled consensus DNA, incubated at 27° C. or 29° C. for 60 min.
T1 construct: The recombinant protein was a truncation mutant containing only amino acids 94-312 of p53; made in house; host or cells: E. coli
T1 sequence (P04637 94-312, change not shown): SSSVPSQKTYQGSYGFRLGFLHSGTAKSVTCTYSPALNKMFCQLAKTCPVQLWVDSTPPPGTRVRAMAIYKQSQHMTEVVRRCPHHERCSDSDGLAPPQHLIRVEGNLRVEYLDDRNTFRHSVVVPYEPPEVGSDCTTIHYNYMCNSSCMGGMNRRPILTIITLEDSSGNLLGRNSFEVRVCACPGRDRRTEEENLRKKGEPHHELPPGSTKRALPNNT
Assay type: biochemical
Method in brief: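 Stabilization of the mutant is inferred from increased binding of His-tagged p53 Y220C to a biotin-labeled consensus DNA, detected by HTRF with europium-streptavidin and APC-anti-His antibody. The concentration giving a 50% rise over compound-free binding is reported as SC150.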
With `COc1cc(S(C)(=O)=O)ccc1NCC#Cc1cc2c(N[C@H]3CCN(C(=O)CN(C)C)C[C@H]3F)cccc2n1CC(F)(F)F` [Compound 856A, 2-(dimethylamino)-1-[(3R,4S)-3-fluoro-4-[(2-{3-[(4-methanesulfonyl-2-methoxyphenyl)amino]prop-1-yn-1-yl}-1-(2,2,2-trifluoroethyl)-1H-indol-4-yl)amino]piperidin-1-yl]ethan-1-one] the “SC150 (concentration of the compound required to increase the DNA binding activity by 50%)” value was “+ (+ = 0 μM ≤ SC150 < 0.05 μM)”.
`COc1cc(S(C)(=O)=O)ccc1NCC#Cc1cc2c(N[C@H]3CC[C@H](N4CC5(CCOCC5)C4)CC3)cccc2n1CC(F)(F)F` [Compound 294A, 2-{3-[(4-methane-sulfonyl-2-methoxy-phenyl)amino]prop-1-yn-1-yl}-N-[(1R,4R)-4-{7-oxa-2-azaspiro[3.5]nonan-2-yl}cyclo-hexyl]-1-(2,2,2-trifluoro-ethyl)-1H-indol-4-amine] was tested, and the “SC150 (concentration of the compound required to increase the DNA binding activity by 50%)” value was “+ (+ = 0 μM ≤ SC150 < 0.05 μM)”.
In the case of `COc1cc(S(C)(=O)=O)ccc1NCC#Cc1cc2c(N[C@H]3CCN(C(C)C)C[C@H]3F)cccc2n1CC(F)(F)F` (racemic) [Compound 795A, (rac)-N-[(3R,4S)-3-fluoro-1-(propan-2-yl)piperidin-4-yl]-2-{3-[(4-methanesulfonyl-2-methoxyphenyl)amino]prop-1-yn-1-yl}-1-(2,2,2-trifluoroethyl)-1H-indol-4-amine], the “SC150 (concentration of the compound required to increase the DNA binding activity by 50%)” value is reported as “+ (+ = 0 μM ≤ SC150 < 0.05 μM)”.
For `COc1cc(C(N)=O)c(F)cc1NCC#Cc1cc2c(N[C@H]3CC[C@H](N(C)C)CC3)cccc2n1CC(F)(F)F` [Compound 132A, 4-((3-(4-(((1R,4R)-4-(dimethylamino)cyclohexyl)amino)-1-(2,2,2-trifluoroethyl)-1H-indol-2-yl)prop-2-yn-1-yl)amino)-2-fluoro-5-methoxybenzamide], the “SC150 (concentration of the compound required to increase the DNA binding activity by 50%)” value was “+ (+ = 0 μM ≤ SC150 < 0.05 μM)”.
`COc1cc(S(N)(=O)=O)ccc1NCC#Cc1cc2c(N[C@@H]3CCN(C[C@H](COC(C)=O)OC(C)=O)C[C@@H]3F)cccc2n1CC(F)(F)F` [Compound 890A, (2R)-1-(acetyloxy)-3-[(3S,4R)-3-fluoro-4-[(2-{3-[(2-methoxy-4-sulfamoylphenyl)amino]prop-1-yn-1-yl}-1-(2,2,2-trifluoroethyl)-1H-indol-4-yl)amino]piperidin-1-yl]propan-2-yl acetate] was tested, and the “SC150 (concentration of the compound required to increase the DNA binding activity by 50%)” value was “+ (+ = 0 μM ≤ SC150 < 0.05 μM)”.
In the case of `COc1cc(S(N)(=O)=O)ccc1NCC#Cc1cc2c(NC3CCOCC3)c(OC)ccc2n1CC(F)(F)F` [Compound 1010A, 3-methoxy-4-[(3-{5-methoxy-4-[(oxan-4-yl)amino]-1-(2,2,2-trifluoroethyl)-1H-indol-2-yl}prop-2-yn-1-yl)amino]benzene-1-sulfonamide], the “SC150 (concentration of the compound required to increase the DNA binding activity by 50%)” value is reported as “++++ (++++ = 0.2 μM ≤ SC150 < 1 μM)”.
`COCC(O)CN1CCC(Nc2cccc3c2cc(C#CCNc2c(F)cc(S(C)(=O)=O)cc2OC)n3CC(F)(F)F)CC1` (stereo not shown) [Compound 714A] was tested, and the “SC150 (concentration of the compound required to increase the DNA binding activity by 50%)” value was “++++ (++++ = 0.2 μM ≤ SC150 < 1 μM)”.
In the case of `COc1cc(S(C)(=O)=O)ccc1NCC#Cc1cc2c(N[C@H]3CC[C@H](N4CC5(CCC5)C4)CC3)cccc2n1CC(F)(F)F` [Compound 194A, 2-{3-[(4-methane-sulfonyl-2-methoxy-phenyl)amino]prop-1-yn-1-yl}-N-[(1R,4R)-4-{2-azaspiro[3.3]heptan-2-yl}cyclohexyl]-1-(2,2,2-trifluoroethyl)-1H-indol-4-amine], the “SC150 (concentration of the compound required to increase the DNA binding activity by 50%)” value is reported as “+ (+ = 0 μM ≤ SC150 < 0.05 μM)”.
`COC(=O)c1ccc(NCC#Cc2cc3c(N[C@@H]4CCN(CC(=O)N(C)C)C[C@@H]4F)cccc3n2CC(F)(F)F)c(OC)c1` [Compound 913A, methyl 4-{[3-(4-{[(3S,4R)-1-[(dimethylcarbamoyl)methyl]-3-fluoropiperidin-4-yl]amino}-1-(2,2,2-trifluoroethyl)-1H-indol-2-yl)prop-2-yn-1-yl]amino}-3-methoxybenzoate] was tested, and the “SC150 (concentration of the compound required to increase the DNA binding activity by 50%)” value was “+ (+ = 0 μM ≤ SC150 < 0.05 μM)”.
`CC(C)C(=O)Oc1cc(S(C)(=O)=O)ccc1NCC#Cc1cc2c(N[C@H]3CC[C@@H](N4CC5(COC5)C4)CC3)cccc2n1CC(F)(F)F` [Compound 224A, 5-methanesulfonyl-2-{[3-(4-{[(1S,4S)-4-{2-oxa-6-azaspiro[3.3]heptan-6-yl}cyclohexyl]amino}-1-(2,2,2-trifluoroethyl)-1H-indol-2-yl)prop-2-yn-1-yl]amino}phenyl 2-methylpropanoate] was tested, and the “SC150 (concentration of the compound required to increase the DNA binding activity by 50%)” value was “+ (+ = 0 μM ≤ SC150 < 0.05 μM)”.
With `CNC(=O)c1ccc(NCC#Cc2cc3c(N[C@H]4CC[C@@H](N5CCOCC5)CC4)cccc3n2CC(F)(F)F)c(OC)c1` [Compound 173A, 3-methoxy-N-methyl-4-{[3-(4-{[(1S,4S)-4-(morpholin-4-yl)cyclohexyl]amino}-1-(2,2,2-trifluoro-ethyl)-1H-indol-2-yl)prop-2-yn-1-yl]amino}benzamide] the “SC150 (concentration of the compound required to increase the DNA binding activity by 50%)” value was “+ (+ = 0 μM ≤ SC150 < 0.05 μM)”.
With `COCC(O)CN1CCC(Nc2c(OC)ccc3c2cc(C#CCNc2ccc(S(C)(=O)=O)cc2OC)n3CC(F)(F)F)CC1` (stereo not shown) [Compound 643A, 1-{4-[(2-{3-[(4-methanesulfonyl-2-methoxyphenyl)amino]prop-1-yn-1-yl}-5-methoxy-1-(2,2,2-trifluoroethyl)-1H-indol-4-yl)amino]piperidin-1-yl}-3-methoxypropan-2-ol] the “SC150 (concentration of the compound required to increase the DNA binding activity by 50%)” value was “+++ (+++ = 0.1 μM ≤ SC150 < 0.2 μM)”.
With `COc1cc(S(C)(=O)=O)ccc1NCC#Cc1cc2c(N[C@@H]3CCN4CCC[C@H]4C3)cccc2n1CC(F)(F)F` [Compound 764A, N-[(7R,8aS)-octahydroindolizin-7-yl]-2-{3-[(4-methanesulfonyl-2-methoxyphfenyl)amino]prop-1-yn-1-yl}-1-(2,2,2-trifluoroethyl)-1H-indol-4-amine] the “SC150 (concentration of the compound required to increase the DNA binding activity by 50%)” value was “+ (+ = 0 μM ≤ SC150 < 0.05 μM)”.
With `COc1cc(S(N)(=O)=O)ccc1NCC#Cc1cc2c(NC3CCN(CC(C)OC(=O)C(C)C)CC3)cccc2n1CC(F)(F)F` (stereo not shown) [Compound 598A, 1-{4-[(2-{3-[(2-methoxy-4-sulfamoylphenyl)amino]prop-1-yn-1-yl}-1-(2,2,2-trifluoroethyl)-1H-indol-4-yl)amino]piperidin-1-yl}propan-2-yl 2-methylpropanoate] the “SC150 (concentration of the compound required to increase the DNA binding activity by 50%)” value was “+ (+ = 0 μM ≤ SC150 < 0.05 μM)”.
In the case of `COC[C@H](O)CN1CC[C@H](Nc2cccc3c2cc(C#CCNc2ccc(C(=O)OC)cc2OC)n3CC(F)(F)F)[C@H](F)C1` [Compound 879A], the “SC150 (concentration of the compound required to increase the DNA binding activity by 50%)” value is reported as “+ (+ = 0 μM ≤ SC150 < 0.05 μM)”.
For `CCC(=O)NS(=O)(=O)c1ccc(NCC#Cc2cc3c(NC4CCN(CC(COC(=O)CC)OC(=O)CC)CC4)cccc3n2CC(F)(F)F)c(OC)c1` (stereo not shown) [Compound 628A, 1-(4-{[2-(3-{[2-methoxy-4-(propanamidosulfonyl)phenyl]amino}prop-1-yn-1-yl)-1-(2,2,2-trifluoroethyl)-1H-indol-4-yl]amino}piperidin-1-yl)-3-(propanoyloxy)propan-2-yl propanoate], the “SC150 (concentration of the compound required to increase the DNA binding activity by 50%)” value was “+ (+ = 0 μM ≤ SC150 < 0.05 μM)”.
For `CNc1cc(S(C)(=O)=O)ccc1OCC#Cc1cc2c(NC3CCN(CC(O)COC)CC3)cccc2n1CC(F)(F)F` (stereo not drawn) [Compound 651A, l-{4-[(2-{3-[4-methanesulfonyl-2-(methylamino)phenoxy]prop-1-yn-1-yl}-1-(2,2,2-trifluoroethyl)-1H-indol-4-yl)amino]piperidin-1-yl}-3-methoxypropan-2-ol], the “SC150 (concentration of the compound required to increase the DNA binding activity by 50%)” value was “+ (+ = 0 μM ≤ SC150 < 0.05 μM)”.
`COc1cc(S(N)(=O)=O)ccc1NCC#Cc1cc2c(NC3CCN(C(=O)CN(C)C)CC3)cccc2n1CC(F)(F)F` [Compound 751A] was tested, and the “SC150 (concentration of the compound required to increase the DNA binding activity by 50%)” value was “+ (+ = 0 μM ≤ SC150 < 0.05 μM)”.
For `CS(=O)(=O)c1ccc(NCC#Cc2cc3c(N[C@H]4CC[C@H](N5CC6CC(C5)O6)CC4)cccc3n2CC(F)(F)F)c(OCC#N)c1` [Compound 407A, 2-(5-methanesulfonyl-2-{[3-(4-{[(1R,4R)-4-{6-oxa-3-azabicyclo[3.1.1]heptan-3-yl}cyclohexyl]amino}-1-(2,2,2-trifluoroethyl)-1H-indol-2-yl)prop-2-yn-1-yl]amino}phenoxy)acetonitrile], the “SC150 (concentration of the compound required to increase the DNA binding activity by 50%)” value was “+ (+ = 0 μM ≤ SC150 < 0.05 μM)”.
`COc1cc(S(C)(=O)=O)ccc1NCC#Cc1cc2c(NC3CCN(CCOC(=O)C(C)C)CC3)cccc2n1CC(F)(F)F` [Compound 584A, 2-{4-[(2-{3-[(4-methanesulfonyl-2-methoxyphenyl)amino]prop-1-yn-1-yl}-1-(2,2,2-trifluoroethyl)-1H-indol-4-yl)amino]piperidin-1-yl} ethyl 2-methylpropanoate] was tested, and the “SC150 (concentration of the compound required to increase the DNA binding activity by 50%)” value was “+ (+ = 0 μM ≤ SC150 < 0.05 μM)”.
With `COc1cc(C(=O)N(C)C(C)C)ccc1NCC#Cc1cc2c(N[C@@H]3CCN(C)C[C@@H]3F)cccc2n1CC(F)(F)F` [Compound 944A, 4-{[3-(4-{[(3S,4R)-3-fluoro-1-methylpiperidin-4-yl]amino}-1-(2,2,2-trifluoroethyl)-1H-indol-2-yl)prop-2-yn-1-yl]amino}-3-methoxy-N-methyl-N-(propan-2-yl)benzamide] the “SC150 (concentration of the compound required to increase the DNA binding activity by 50%)” value was “+ (+ = 0 μM ≤ SC150 < 0.05 μM)”.
With `COc1cc(S(=O)(=O)N(C)C)ccc1NCC#Cc1cc2c(NC3CCN(CC(O)CO)CC3)cccc2n1CC(F)(F)F` (stereo not shown) [Compound 564A, 4-{[3-(4-{[1-(2,3-dihydroxypropyl)piperidin-4-yl]amino}-1-(2,2,2-trifluoroethyl)-1H-indol-2-yl)prop-2-yn-1-yl]amino}-3-methoxy-N,N-dimethylbenzene-1-sulfonamide] the “SC150 (concentration of the compound required to increase the DNA binding activity by 50%)” value was “+ (+ = 0 μM ≤ SC150 < 0.05 μM)”.
